Settings in all cases: PC-3
Test [1] deals with Serine/threonine-protein kinase Nek7 (Homo sapiens) (UniProt Q8TDX7). In words: Inhibition of NEK7 in human PC3 cell lysates at 10 uM using desthiobiotin-tagged ATP probe AX9989 followed by trypsinization by LC/MS analysis.
For test [2], the target named is Ribosomal protein S6 kinase beta-2 (Homo sapiens) (UniProt Q9UBS0). In words: Inhibition of p70S6Kbeta in human PC3 cell lysates at 10 uM using desthiobiotin-tagged ATP probe AX9989 followed by trypsinization by LC/MS analysis.
Sequence of Ribosomal protein S6 kinase beta-2 (Homo sapiens) (Q9UBS0 whole entry): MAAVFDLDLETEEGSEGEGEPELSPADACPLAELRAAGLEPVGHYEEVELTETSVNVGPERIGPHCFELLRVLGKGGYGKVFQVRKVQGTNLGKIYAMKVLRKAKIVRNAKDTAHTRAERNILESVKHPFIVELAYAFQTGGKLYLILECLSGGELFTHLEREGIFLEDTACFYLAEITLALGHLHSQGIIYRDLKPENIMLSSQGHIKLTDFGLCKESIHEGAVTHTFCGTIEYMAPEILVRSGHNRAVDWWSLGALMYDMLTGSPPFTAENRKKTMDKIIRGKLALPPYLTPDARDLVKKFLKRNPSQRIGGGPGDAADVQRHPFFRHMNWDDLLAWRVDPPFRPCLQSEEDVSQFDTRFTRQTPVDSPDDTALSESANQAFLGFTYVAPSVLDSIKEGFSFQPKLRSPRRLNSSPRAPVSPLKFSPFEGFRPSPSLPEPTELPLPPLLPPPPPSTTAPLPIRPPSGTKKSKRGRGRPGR
Test [3] deals with T1, Ephrin type-B receptor 4 (Homo sapiens) (UniProt P54760).
T1 sequence (whole entry): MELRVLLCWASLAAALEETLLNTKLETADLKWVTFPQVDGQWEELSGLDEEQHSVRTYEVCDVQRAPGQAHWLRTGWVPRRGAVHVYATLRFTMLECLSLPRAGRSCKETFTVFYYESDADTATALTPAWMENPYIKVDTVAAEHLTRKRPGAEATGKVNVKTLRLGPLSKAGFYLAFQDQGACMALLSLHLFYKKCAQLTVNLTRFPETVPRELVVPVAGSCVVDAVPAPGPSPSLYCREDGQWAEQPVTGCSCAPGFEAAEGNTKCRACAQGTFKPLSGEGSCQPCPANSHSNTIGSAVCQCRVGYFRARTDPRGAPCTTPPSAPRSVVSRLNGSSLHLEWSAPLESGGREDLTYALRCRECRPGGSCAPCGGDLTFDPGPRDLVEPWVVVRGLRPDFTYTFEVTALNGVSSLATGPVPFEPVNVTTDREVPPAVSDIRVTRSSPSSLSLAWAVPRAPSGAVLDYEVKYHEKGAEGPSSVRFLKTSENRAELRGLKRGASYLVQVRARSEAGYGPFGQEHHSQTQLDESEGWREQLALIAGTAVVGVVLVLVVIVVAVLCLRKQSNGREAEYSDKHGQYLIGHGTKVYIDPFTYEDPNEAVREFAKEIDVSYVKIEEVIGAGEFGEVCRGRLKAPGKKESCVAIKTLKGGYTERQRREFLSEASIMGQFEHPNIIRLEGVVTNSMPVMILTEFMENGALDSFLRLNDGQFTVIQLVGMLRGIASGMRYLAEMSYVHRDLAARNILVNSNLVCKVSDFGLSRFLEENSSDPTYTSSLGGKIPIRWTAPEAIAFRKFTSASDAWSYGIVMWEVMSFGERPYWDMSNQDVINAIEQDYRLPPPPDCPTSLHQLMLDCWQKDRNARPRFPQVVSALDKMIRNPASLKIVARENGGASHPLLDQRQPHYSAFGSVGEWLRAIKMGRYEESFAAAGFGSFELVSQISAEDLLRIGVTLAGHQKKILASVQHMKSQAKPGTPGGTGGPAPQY
In words: Inhibition of EphB4 in human PC3 cell lysates at 10 uM using desthiobiotin-tagged ATP probe AX9989 followed by trypsinization by LC/MS analysis.

The target in test [4] is Casein kinase II subunit alpha' (Homo sapiens) (UniProt P19784). As to the kind of experiment: Inhibition of CK2alpha2 in human PC3 cell lysates at 10 uM using desthiobiotin-tagged ATP probe AX9989 followed by trypsinization by LC/MS analysis.
Sequence of Casein kinase II subunit alpha' (Homo sapiens) (P19784 whole entry, looked up): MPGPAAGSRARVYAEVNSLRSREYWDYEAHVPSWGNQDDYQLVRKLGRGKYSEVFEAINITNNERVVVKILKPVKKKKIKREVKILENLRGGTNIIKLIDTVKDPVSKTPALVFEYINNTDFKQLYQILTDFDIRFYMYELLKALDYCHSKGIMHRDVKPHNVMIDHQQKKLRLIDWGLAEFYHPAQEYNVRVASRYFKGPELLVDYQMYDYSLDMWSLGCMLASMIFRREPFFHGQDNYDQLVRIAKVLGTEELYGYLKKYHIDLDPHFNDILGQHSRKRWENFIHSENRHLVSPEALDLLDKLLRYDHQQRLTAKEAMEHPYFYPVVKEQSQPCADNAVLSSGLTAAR
Test [5] deals with Interleukin-1 receptor-associated kinase 1 (Homo sapiens) (UniProt P51617). In words: Inhibition of IRAK1 in human PC3 cell lysates at 10 uM using desthiobiotin-tagged ATP probe AX9989 followed by trypsinization by LC/MS analysis.
Sequence of Interleukin-1 receptor-associated kinase 1 (Homo sapiens) (P51617 whole entry, looked up): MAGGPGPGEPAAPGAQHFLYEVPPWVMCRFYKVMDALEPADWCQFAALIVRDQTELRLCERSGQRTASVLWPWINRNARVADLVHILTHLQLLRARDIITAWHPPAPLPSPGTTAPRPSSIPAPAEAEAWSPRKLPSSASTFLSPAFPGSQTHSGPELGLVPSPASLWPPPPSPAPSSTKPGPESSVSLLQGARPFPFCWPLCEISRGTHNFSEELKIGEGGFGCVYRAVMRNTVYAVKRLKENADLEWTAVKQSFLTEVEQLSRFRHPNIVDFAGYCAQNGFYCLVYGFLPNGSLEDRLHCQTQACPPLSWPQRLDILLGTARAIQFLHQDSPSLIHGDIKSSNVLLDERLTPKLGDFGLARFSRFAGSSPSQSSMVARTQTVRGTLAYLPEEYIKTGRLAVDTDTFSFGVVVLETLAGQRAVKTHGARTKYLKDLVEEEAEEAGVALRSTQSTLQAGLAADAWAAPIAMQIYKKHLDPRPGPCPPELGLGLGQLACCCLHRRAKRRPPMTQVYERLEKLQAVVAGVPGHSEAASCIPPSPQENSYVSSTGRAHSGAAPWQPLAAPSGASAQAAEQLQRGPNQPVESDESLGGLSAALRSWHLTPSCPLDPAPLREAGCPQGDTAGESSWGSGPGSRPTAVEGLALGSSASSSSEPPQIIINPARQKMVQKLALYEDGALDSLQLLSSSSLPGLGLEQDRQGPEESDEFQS
Test [6] addresses Mitogen-activated protein kinase 1 (Homo sapiens) (UniProt P28482). As to the kind of experiment: Inhibition of Erk2 in human PC3 cell lysates at 10 uM using desthiobiotin-tagged ATP probe AX9989 followed by trypsinization by LC/MS analysis.
Test [7] deals with Serine/threonine-protein kinase WNK4 (Homo sapiens) (UniProt Q96J92). In words: Inhibition of Wnk4 in human PC3 cell lysates at 10 uM using desthiobiotin-tagged ATP probe AX9989 followed by trypsinization by LC/MS analysis.
Sequence of Serine/threonine-protein kinase WNK4 (Homo sapiens) (Q96J92 whole entry): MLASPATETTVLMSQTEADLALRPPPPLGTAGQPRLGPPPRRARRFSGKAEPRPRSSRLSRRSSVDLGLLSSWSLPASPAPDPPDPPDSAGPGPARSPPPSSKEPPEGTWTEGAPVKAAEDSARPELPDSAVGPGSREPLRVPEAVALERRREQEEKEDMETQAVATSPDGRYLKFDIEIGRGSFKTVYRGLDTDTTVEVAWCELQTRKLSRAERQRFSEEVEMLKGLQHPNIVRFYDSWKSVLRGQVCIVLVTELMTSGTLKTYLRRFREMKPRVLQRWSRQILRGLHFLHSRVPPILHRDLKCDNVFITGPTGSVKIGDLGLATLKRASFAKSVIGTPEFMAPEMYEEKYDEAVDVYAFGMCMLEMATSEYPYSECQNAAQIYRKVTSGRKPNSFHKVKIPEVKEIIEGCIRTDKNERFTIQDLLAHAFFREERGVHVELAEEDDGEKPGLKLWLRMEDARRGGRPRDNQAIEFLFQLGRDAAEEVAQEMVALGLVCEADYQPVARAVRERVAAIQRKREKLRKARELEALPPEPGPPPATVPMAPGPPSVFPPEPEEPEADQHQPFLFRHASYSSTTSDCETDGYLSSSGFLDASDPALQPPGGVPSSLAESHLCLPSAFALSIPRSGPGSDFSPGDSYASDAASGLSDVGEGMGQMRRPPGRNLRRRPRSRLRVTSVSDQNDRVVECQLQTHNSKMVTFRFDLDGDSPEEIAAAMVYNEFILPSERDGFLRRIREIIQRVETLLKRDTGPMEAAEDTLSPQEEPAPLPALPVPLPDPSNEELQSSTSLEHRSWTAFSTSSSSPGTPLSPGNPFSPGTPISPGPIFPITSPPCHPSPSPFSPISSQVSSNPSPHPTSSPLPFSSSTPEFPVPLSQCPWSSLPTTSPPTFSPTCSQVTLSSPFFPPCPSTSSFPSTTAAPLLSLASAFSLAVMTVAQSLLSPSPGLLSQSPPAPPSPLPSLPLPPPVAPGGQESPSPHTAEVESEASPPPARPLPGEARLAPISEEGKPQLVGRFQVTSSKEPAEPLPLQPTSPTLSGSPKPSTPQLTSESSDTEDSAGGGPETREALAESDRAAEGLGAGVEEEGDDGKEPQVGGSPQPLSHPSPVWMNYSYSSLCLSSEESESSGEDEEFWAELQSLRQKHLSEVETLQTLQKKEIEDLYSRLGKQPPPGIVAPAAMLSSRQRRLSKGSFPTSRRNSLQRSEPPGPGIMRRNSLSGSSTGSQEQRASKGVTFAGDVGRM
For test [8], the target named is CaM kinase II (Homo sapiens) (UniProt Q13557+Q13555+Q13554+Q9UQM7). As to the kind of experiment: Inhibition of CaMK2alpha/CaMK2beta/CaMK2delta/CaMK2gamma in human PC3 cell lysates at 10 uM using desthiobiotin-tagged ATP probe AX9989 followed by trypsinization by LC/MS analysis. It counts as protein assay.
For test [9], the target named is Serine/threonine-protein kinase Chk2 (Homo sapiens) (UniProt O96017). In words: Inhibition of CHK2 in human PC3 cell lysates at 10 uM using desthiobiotin-tagged ATP probe AX9989 followed by trypsinization by LC/MS analysis.
Sequence of Serine/threonine-protein kinase Chk2 (Homo sapiens) (O96017 whole entry): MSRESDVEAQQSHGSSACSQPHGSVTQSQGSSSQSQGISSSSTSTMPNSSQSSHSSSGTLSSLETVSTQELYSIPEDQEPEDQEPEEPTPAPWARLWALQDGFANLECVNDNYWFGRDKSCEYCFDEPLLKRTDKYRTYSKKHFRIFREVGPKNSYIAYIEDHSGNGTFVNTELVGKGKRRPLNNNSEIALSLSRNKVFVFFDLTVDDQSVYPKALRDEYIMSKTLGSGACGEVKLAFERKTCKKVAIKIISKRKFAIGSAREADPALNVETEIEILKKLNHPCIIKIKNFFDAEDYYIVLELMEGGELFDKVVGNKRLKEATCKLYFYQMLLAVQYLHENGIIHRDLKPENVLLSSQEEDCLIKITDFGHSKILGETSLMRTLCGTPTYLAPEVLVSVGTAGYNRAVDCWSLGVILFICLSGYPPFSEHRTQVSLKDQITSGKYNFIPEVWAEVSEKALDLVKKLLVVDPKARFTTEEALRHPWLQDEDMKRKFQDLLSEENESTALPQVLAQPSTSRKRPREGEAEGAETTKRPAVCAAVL
For test [10], the target named is Focal adhesion kinase 1 (Homo sapiens) (UniProt Q05397). As to the kind of experiment: Inhibition of FAK in human PC3 cell lysates at 10 uM using desthiobiotin-tagged ATP probe AX9989 followed by trypsinization by LC/MS analysis.
Sequence of Focal adhesion kinase 1 (Homo sapiens) (Q05397 2-1052 limits assumed): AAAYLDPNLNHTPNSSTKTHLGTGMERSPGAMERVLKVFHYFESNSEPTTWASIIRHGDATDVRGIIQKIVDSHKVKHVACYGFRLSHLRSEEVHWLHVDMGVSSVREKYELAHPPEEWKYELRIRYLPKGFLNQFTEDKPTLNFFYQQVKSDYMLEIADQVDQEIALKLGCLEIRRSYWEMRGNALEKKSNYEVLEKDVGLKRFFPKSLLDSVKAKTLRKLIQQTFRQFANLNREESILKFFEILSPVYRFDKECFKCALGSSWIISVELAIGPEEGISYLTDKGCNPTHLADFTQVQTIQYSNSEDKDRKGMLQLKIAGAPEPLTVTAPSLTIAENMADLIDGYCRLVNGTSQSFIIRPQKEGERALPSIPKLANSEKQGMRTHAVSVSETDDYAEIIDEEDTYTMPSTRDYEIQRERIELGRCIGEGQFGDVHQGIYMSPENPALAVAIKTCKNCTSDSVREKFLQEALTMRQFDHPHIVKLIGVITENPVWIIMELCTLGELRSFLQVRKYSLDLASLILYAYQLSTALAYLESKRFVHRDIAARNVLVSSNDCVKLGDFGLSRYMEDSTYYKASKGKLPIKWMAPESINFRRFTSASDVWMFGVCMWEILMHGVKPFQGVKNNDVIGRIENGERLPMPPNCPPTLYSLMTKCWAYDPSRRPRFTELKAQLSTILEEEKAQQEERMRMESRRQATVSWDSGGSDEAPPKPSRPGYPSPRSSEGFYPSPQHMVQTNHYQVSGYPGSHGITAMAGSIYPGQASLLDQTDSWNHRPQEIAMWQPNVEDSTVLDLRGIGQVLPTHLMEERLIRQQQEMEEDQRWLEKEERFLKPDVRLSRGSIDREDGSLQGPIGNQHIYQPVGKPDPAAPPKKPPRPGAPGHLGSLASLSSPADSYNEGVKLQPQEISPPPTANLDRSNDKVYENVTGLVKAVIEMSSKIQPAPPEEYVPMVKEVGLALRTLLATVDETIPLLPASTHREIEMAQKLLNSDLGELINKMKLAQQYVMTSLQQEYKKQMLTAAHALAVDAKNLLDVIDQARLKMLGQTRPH
In test [11] the target is T2, Serine/threonine-protein kinase TAO3 (Homo sapiens) (UniProt Q9H2K8).
T2 sequence (whole entry): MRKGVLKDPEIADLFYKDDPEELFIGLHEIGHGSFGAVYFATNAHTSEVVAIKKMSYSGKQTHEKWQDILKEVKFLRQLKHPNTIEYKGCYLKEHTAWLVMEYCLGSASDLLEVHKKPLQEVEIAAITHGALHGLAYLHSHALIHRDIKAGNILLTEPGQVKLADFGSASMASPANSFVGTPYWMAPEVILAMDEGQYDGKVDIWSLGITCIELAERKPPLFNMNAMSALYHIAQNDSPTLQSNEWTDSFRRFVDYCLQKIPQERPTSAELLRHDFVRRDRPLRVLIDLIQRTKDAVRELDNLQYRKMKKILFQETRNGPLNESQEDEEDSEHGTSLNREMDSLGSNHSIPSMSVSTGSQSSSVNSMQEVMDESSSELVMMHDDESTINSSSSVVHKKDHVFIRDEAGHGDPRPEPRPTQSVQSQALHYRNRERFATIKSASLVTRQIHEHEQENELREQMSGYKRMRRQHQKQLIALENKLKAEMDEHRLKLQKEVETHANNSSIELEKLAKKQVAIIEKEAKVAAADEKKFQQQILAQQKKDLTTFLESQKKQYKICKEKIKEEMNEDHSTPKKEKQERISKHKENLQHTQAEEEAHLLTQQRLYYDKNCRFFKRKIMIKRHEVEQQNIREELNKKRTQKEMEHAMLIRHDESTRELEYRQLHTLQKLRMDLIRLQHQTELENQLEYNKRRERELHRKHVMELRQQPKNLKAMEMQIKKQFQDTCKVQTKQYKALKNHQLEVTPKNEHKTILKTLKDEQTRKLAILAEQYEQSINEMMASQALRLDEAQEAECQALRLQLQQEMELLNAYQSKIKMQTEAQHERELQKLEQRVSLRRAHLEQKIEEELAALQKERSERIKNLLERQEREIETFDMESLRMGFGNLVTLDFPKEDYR
As to the kind of experiment: Inhibition of TAO3 in human PC3 cell lysates at 10 uM using desthiobiotin-tagged ATP probe AX9989 followed by trypsinization by LC/MS analysis.

Sequence of Serine/threonine-protein kinase Nek7 (Homo sapiens) (Q8TDX7 whole entry, looked up): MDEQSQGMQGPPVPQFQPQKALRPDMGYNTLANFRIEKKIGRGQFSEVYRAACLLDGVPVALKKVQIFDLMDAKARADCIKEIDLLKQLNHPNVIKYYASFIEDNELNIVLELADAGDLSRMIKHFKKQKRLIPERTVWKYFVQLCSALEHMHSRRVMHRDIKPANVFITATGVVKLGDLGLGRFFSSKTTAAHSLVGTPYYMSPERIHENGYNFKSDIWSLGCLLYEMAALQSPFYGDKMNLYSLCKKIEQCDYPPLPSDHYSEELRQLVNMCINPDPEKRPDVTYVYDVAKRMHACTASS
Sequence of Mitogen-activated protein kinase 1 (Homo sapiens) (P28482 whole entry): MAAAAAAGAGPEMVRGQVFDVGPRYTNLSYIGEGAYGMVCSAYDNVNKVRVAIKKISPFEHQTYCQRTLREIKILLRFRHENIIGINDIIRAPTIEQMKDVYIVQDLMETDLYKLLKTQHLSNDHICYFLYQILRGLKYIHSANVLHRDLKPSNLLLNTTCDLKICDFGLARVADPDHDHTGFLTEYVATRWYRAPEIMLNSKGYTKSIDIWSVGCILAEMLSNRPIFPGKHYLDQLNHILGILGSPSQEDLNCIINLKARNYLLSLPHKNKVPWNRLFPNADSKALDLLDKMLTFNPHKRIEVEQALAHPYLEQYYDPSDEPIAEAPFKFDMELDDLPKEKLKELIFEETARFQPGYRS

As to `O=C(NC1(c2ccc(F)cc2)CC1)c1ccc2nc(N[C@H]3CC[C@H](O)CC3)c3nccn3c2c1`, the inhibition in test [1], in test [2], in test [3], in test [4], in test [5] and in test [6] was below 35% throughout. In addition, the inhibition in test [7], in test [8], in [9], in test [10] and in [11] was below 35% throughout.

For `C[C@H](NC(=O)c1ccc2nc(N[C@H]3CC[C@H](O)CC3)c3nccn3c2c1)c1ccccc1`, the inhibition in [1], in test [2], in [3], in test [4], in test [5] and in [6] was below 35% in each case. For the same compound, the inhibition in test [7], in [8], in test [9], in [10] and in [11] was below 35% in each case.

Take `O=C(O)c1ccc2nc(N[C@H]3CC[C@H](O)CC3)c3nccn3c2c1`: the inhibition was below 35% in [1]; below 35% in test [2]; below 35% in [3]; 40.6% in test [4]; below 35% in [5]; below 35% in test [6]. The inhibition in [7], in test [8], in test [9], in [10] and in test [11] was below 35% in each case.

For the compound `O=C(NC1(c2ccccc2)CC1)c1ccc2nc(N[C@H]3CC[C@H](O)CC3)c3nccn3c2c1`, the inhibition in test [1], in test [2], in test [3], in test [4], in test [5] and in [6] was below 35% in each case. In addition, the inhibition in test [7], in test [8], in test [9], in test [10] and in test [11] was below 35% in each case.

As for `O=C(N[C@H](CO)c1ccccc1)c1ccc2nc(N[C@H]3CC[C@H](O)CC3)c3nccn3c2c1`, the inhibition in test [1], in test [2], in [3], in test [4], in [5] and in test [6] was below 35% throughout. For the same compound, the inhibition in [7], in test [8], in test [9], in test [10] and in test [11] was below 35% in each case.

For the compound `C[C@@H](NC(=O)c1ccc2nc(N[C@H]3CC[C@H](O)CC3)c3nccn3c2c1)c1ccccc1`, the inhibition in [1], in test [2], in test [3], in test [4], in test [5] and in test [6] was below 35% in each case. In addition, the inhibition in test [7], in test [8], in test [9], in [10] and in test [11] was below 35% throughout.

In the case of `CC[C@@H](NC(=O)c1ccc2nc(N[C@H]3CC[C@H](O)CC3)c3nccn3c2c1)c1ccccc1`, the inhibition in test [1], in test [2], in test [3], in [4], in [5] and in test [6] was below 35% throughout. Besides, the inhibition in test [7] was below 35%; in [8], 46.9%; in test [9], below 35%; in test [10], below 35%; in [11], below 35%.

The values are drawn from ChEMBL document CHEMBL2417377, “Hit-to-lead optimization and kinase selectivity of imidazo[1,2-a]quinoxalin-4-amine derived JNK1 inhibitors” (Bioorg Med Chem Lett, 2013).
